# Experimental data reported in patent US20120309734A1, “COMBRETASTATIN DERIVATIVES AND USES THEREFOR” (priority 2009, published 2012).
# Like-named read-outs stand apart in the source and are kept apart here.
# What was measured:
# [1] = tested on: human promyelocytic leukaemia HL-60 cells; experiment: MTT cell viability assay; type: cell-based; settings: read-out: Inhibition of cell viability (IC50 value, nM) HL-60
# [2] = tested on: normal mouse mammary epithelial cells; experiment: Viability of normal mammary epithelial cells; type: cell-based; settings: 72 hr treatment
# [3] = tested on: normal mouse mammary epithelial cells; experiment: Viability of normal mammary epithelial cells; type: cell-based
# Experimental: The maximum toxicity elicited by these drugs on normal cells at a concentration of 10 nM was only 8% (see Table 4).
# [4] = target: T1, purified human liver cathepsin-L (Homo sapiens, UniProt P07711); experiment: Fluorogenic cathepsin-L activity kit; type: biochemical; settings: FIG. 2
# T1 construct: uses purified human liver cathepsin-L as the source of the cathepsin; purchased calbiochem; host or cells: human liver
# T1 sequence (P07711 114-333): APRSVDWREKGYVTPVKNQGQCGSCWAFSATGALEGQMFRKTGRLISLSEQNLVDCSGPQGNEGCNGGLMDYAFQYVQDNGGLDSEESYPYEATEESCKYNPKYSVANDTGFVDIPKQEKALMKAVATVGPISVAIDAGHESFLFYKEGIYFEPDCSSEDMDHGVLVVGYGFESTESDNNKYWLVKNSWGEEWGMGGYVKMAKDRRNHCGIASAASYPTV
# Experimental: Cathepsin L activity was measured using the fluorogenic cathepsin-L activity kit from calbiochem which uses purified human liver cathepsin-L as the source of the cathepsin. […] Values represent the mean+/−range of two separate experiments each carried out in duplicate.
# [5] = tested on: MCF-7 breast cancer cell line; experiment: Antiproliferation study, MTT cell viability assay; type: cell-based; settings: Homo sapiens
# Experimental: All assays were performed in triplicate for the determination of mean values reported. Compounds were assayed as the free bases isolated from reaction. The human breast tumour cell line MCF-7 was cultured in Eagles minimum essential medium in a […] atmosphere with 10% fetal bovine serum, 2 mM L-glutamine and 100 μg/mL penicillin/streptomycin. The medium was supplemented with 1% non-essential amino acids. MDA-MB-231 cells were maintained in Dulbecco's Modified Eagle's medium (DMEM), supplemented with 10% (v/v) Fetal bovine serum, 2 mM L-glutamine and 100 μg/mL penicillin/streptomycin (complete medium). Cells were trypsinised and seeded at a density of 2.5×10^4 cells/ml in a 96-well plate and incubated at 37° C., […] atmosphere for 24 h. […] Control wells contained the equivalent volume of the vehicle ethanol (1% v/v). The culture medium was then removed and the cells washed with 100 μL phosphate buffered saline (PBS) and 50 μL MTT added, to reach a final concentration of 1 mg/mL MTT added. Cells were incubated for 2 h in darkness at 37° C. At this point solubilization was begun through the addition of 200 μL DMSO and the cells maintained at room temperature in darkness for 20 min to ensure thorough colour diffusion before reading the absorbance. The absorbance value of control cells (no added compound) was set to 100% cell viability and from this graphs of absorbance versus cell density per well were prepared to assess cell viability and from these, graphs of percentage cell viability versus concentration of subject compound added were drawn.
# [6] = tested on: human chronic myeloid leukaemia K562 cells; experiment: MTT cell viability assay; type: cell-based; settings: read-out: Inhibition of cell viability (IC50 value, nM) K562
# [7] = tested on: purified bovine brain tubulin; experiment: Tubulin polymerization assay (turbidity); type: biochemical
# Experimental: The effect of compounds on the assembly of purified bovine brain tubulin was determined spectrophotometrically by monitoring the change in turbidity. This assay used a 96-well plate format with 300 μg of >99% purified bovine brain tubulin in each well. […] 10 μl of 10× strength of each compound tested was pipetted into a half area 96-well plate prewarmed to 37° C. A 100 μl volume of tubulin was then pipetted into the prewarmed plate. Samples were mixed well and tubulin assembly was monitored at an A340 nm at 30 second intervals for 60 minutes at 37° C. in a Spectromax 340PC spectrophotometer (Molecular Devices).
# [8] = tested on: MDA-MB-231 cells; experiment: Cell cycle analysis by flow cytometry (PI); type: cell-based, human
# Experimental: The MDA-MB-231 cells were seeded at a density of 18×10^4 cells/mL in 5 mL of medium (900,000 cells per flask). After 24 hours the control was treated with 50 μL of ethanol (1% v/v) and selected compound dosed at range 10 nM-10 μM (final concentration, 1% v/v). They were incubated for 72 hours. Following incubation, the cells were removed from the bottom of the flask by scraping and the medium placed in a 20 mL sterilin. They were centrifuged for 10 minutes at 600×g. The supernatant was decanted and the pellet resuspended in 1 mL of ice-cold PBS; cells were again centrifuged for 10 minutes at 600×g. The supernatant was decanted and the pellet resuspended in 200 μL of ice-cold phosphate buffer saline (PBS). Subsequently ice-cold 70% ethanol (2 mL) was slowly added to the tube as it was gently vortexed. The cells were kept at −20° C. for at least one hour. After the fixation 5 μL of FBS was added to the samples. The cells were harvested by centrifugation at 600×g for 10 mins. The ethanol was carefully removed and the pellet resuspended in 400 μL of PBS and transferred to FACS microtubes. A 25 μL aliquot of RNase A (1 mg/mL) and 75 μL of propidium iodide (PI) 1 mg/mL, a DNA binding fluorescent dye, was added to each tube. The samples were wrapped in aluminium foil and incubated for a minimum of 30 min at 37° C. The samples were read at 488 nm using FACscalibur flow cytometer from Becton Dickinson. The FACS data for 10,000 cells was analysed using the Macintosh-based application Cellquest and the data was stored as frequency histograms.
# (§1) MDA-MB-231 cells were treated with vehicle (1% (v/v) ethanol) or 10 nM, 100 nM, 1 μM and 10 μM (final concentrations) of 25. Cells were harvested after 24, 48 or 72 hours and analysed for DNA content by flow cytometry.
# [9] = tested on: MDA-MB-231 cells; experiment: Antiproliferation study, MTT cell viability assay; type: cell-based; settings: Homo sapiens, read-out: antiproliferative effects, MDA-MB-231
# Experimental: All assays were performed in triplicate for the determination of mean values reported. Compounds were assayed as the free bases isolated from reaction. The human breast tumour cell line MCF-7 was cultured in Eagles minimum essential medium in a […] atmosphere with 10% fetal bovine serum, 2 mM L-glutamine and 100 μg/mL penicillin/streptomycin. The medium was supplemented with 1% non-essential amino acids. MDA-MB-231 cells were maintained in Dulbecco's Modified Eagle's medium (DMEM), supplemented with 10% (v/v) Fetal bovine serum, 2 mM L-glutamine and 100 μg/mL penicillin/streptomycin (complete medium). […] At this point solubilization was begun through the addition of 200 μL DMSO and the cells maintained at room temperature in darkness for 20 min to ensure thorough colour diffusion before reading the absorbance. The absorbance value of control cells (no added compound) was set to 100% cell viability and from this graphs of absorbance versus cell density per well were prepared to assess cell viability and from these, graphs of percentage cell viability versus concentration of subject compound added were drawn.
# as §1
# [10] = MCF7, 72 h, antiproliferative activity, MTT, 72 h, read-out: IC50 (μM) MCF-7 cell line
compound,measurement,setting,value
"COc1ccc(C2C(c3ccc(O)cc3)C(=O)N2c2cc(OC)c(OC)c(OC)c2)cc1O (stereo not drawn) [Compound 14, 4-(3-Hydroxy-4-methoxy-phenyl)-3-(4-hydroxy-phenyl)-1-(3,4,5-trimethoxy-phenyl)-azetidin-2-one]",melting point,,152 °C
same,IC50,[1],0.4 nM
same,Percent viability of normal mammary epithelial cells compared to control,[2]; 1 nM,93.8%
same,Percent viability of normal mammary epithelial cells compared to control,[2]; 100 nM,73.2%
same,Percent viability of normal mammary epithelial cells compared to control,[2]; 1 μM,75.2%
same,Percent viability of normal mammary epithelial cells compared to control,[2]; 10 μM,74.8%
same,Percent viability of normal mammary epithelial cells compared to control,"[3]; 10 nM, 72 hr treatment",90%
same,effects on normal mammary epithelial cells,[3]; up to 10 μM,minimal effects
same,inhibition of cathepsin-L activity,[4],inhibited cathepsin-L in the nanomolar range
same,IC50,[5]; [10],0.0008 µM
same,IC50,"[5]; MCF7, MTT cell viability assay, read-out: Inhibition of cell viability (IC50 value, nM) MCF-7",0.0008 to 0.0031 µM
same,IC50,[6],0.9 nM
COc1ccc(C2CC(=O)N2c2cc(OC)c(OC)c(OC)c2)cc1O (stereo not drawn) [Compound 25],X-fold inhibition of tubulin polymerisation (Vmax ± SEM),[7]; 1 μM,1.1 ± 0.2 fold
same,X-fold inhibition of tubulin polymerisation (Vmax ± SEM),[7]; 10 μM,10.2 ± 2.3 fold
same,G1 (%),"[8]; 10 nM, 24 hours",48.33 ± 4.18%
same,G2/M (%),"[8]; 10 nM, 24 hours",25.61 ± 0.98%
same,M5 (%),"[8]; 10 nM, 24 hours",2.84 ± 0.59%
same,S (%),"[8]; 10 nM, 24 hours",12.55 ± 2.54%
same,Sub-G1 (%),"[8]; 10 nM, 24 hours",3.72 ± 1.97%
same,G1 (%),"[8]; 10 nM, 48 hours",45.25 ± 7.37%
same,G2/M (%),"[8]; 10 nM, 48 hours",23.71 ± 7.81%
same,M5 (%),"[8]; 10 nM, 48 hours",6.10 ± 0.62%
same,S (%),"[8]; 10 nM, 48 hours",13.36 ± 2.58%
same,Sub-G1 (%),"[8]; 10 nM, 48 hours",11.57 ± 3.06%
same,G1 (%),"[8]; 10 nM, 72 hours",48.24 ± 2.79%
same,G2/M (%),"[8]; 10 nM, 72 hours",17.68 ± 4.58%
same,M5 (%),"[8]; 10 nM, 72 hours",3.55 ± 1.57%
same,S (%),"[8]; 10 nM, 72 hours",9.08 ± 2.32%
same,Sub-G1 (%),"[8]; 10 nM, 72 hours",15.25 ± 2.03%
same,G1 (%),"[8]; 100 nM, 24 hours",18.95 ± 6.60%
same,G2/M (%),"[8]; 100 nM, 24 hours",59.43 ± 3.13%
same,M5 (%),"[8]; 100 nM, 24 hours",4.87 ± 4.39%
same,S (%),"[8]; 100 nM, 24 hours",6.05 ± 0.38%
same,Sub-G1 (%),"[8]; 100 nM, 24 hours",4.88 ± 0.85%
same,G1 (%),"[8]; 100 nM, 48 hours",10.76 ± 0.34%
same,G2/M (%),"[8]; 100 nM, 48 hours",36.42 ± 3.42%
same,M5 (%),"[8]; 100 nM, 48 hours",4.61 ± 0.86%
same,S (%),"[8]; 100 nM, 48 hours",8.90 ± 0.85%
same,Sub-G1 (%),"[8]; 100 nM, 48 hours",37.50 ± 0.71%
same,G1 (%),"[8]; 100 nM, 72 hours",13.90 ± 3.62%
same,G2/M (%),"[8]; 100 nM, 72 hours",12.62 ± 9.22%
same,M5 (%),"[8]; 100 nM, 72 hours",2.99 ± 1.89%
same,S (%),"[8]; 100 nM, 72 hours",5.34 ± 4.32%
same,Sub-G1 (%),"[8]; 100 nM, 72 hours",63.10 ± 20.06%
same,G1 (%),"[8]; 1 μM, 24 hours",19.22 ± 6.19%
same,G2/M (%),"[8]; 1 μM, 24 hours",63.16 ± 4.86%
same,M5 (%),"[8]; 1 μM, 24 hours",4.31 ± 3.17%
same,S (%),"[8]; 1 μM, 24 hours",6.01 ± 2.90%
same,Sub-G1 (%),"[8]; 1 μM, 24 hours",7.08 ± 4.20%
same,G1 (%),"[8]; 1 μM, 72 hours",14.29 ± 2.20%
same,G2/M (%),"[8]; 1 μM, 72 hours",21.24 ± 12.05%
same,M5 (%),"[8]; 1 μM, 72 hours",5.97 ± 4.71%
same,S (%),"[8]; 1 μM, 72 hours",7.76 ± 0.58%
same,Sub-G1 (%),"[8]; 1 μM, 72 hours",50.53 ± 14.78%
same,G1 (%),"[8]; 10 μM, 24 hours",29.30 ± 5.95%
same,G2/M (%),"[8]; 10 μM, 24 hours",55.36 ± 1.49%
same,M5 (%),"[8]; 10 μM, 24 hours",3.85 ± 3.83%
same,S (%),"[8]; 10 μM, 24 hours",3.72 ± 0.71%
same,Sub-G1 (%),"[8]; 10 μM, 24 hours",3.18 ± 0.25%
same,G1 (%),"[8]; 10 μM, 48 hours",14.44 ± 2.28%
same,G2/M (%),"[8]; 10 μM, 48 hours",27.25 ± 4.45%
same,M5 (%),"[8]; 10 μM, 48 hours",2.28 ± 0.06%
same,S (%),"[8]; 10 μM, 48 hours",4.47 ± 0.06%
same,Sub-G1 (%),"[8]; 10 μM, 48 hours",51.27 ± 6.31%
same,G1 (%),"[8]; 10 μM, 72 hours",17.14 ± 3.31%
same,G2/M (%),"[8]; 10 μM, 72 hours",21.81 ± 12.40%
same,M5 (%),"[8]; 10 μM, 72 hours",3.38 ± 2.84%
same,S (%),"[8]; 10 μM, 72 hours",9.66 ± 1.84%
same,Sub-G1 (%),"[8]; 10 μM, 72 hours",46.49 ± 17.49%
same,IC50,[5]; [10],0.017 µM
same,IC50,"[5]; MCF7, read-out: antiproliferative effects, MCF-7",0.017 µM
same,IC50,[9],54 nM
